In US20250154198A1, “PEPTIDE INHIBITORS OF INTERLEUKIN-23 RECEPTOR” (Zealand Pharma A/S, priority 2021, published 2025):
Read-outs that look alike come from different tables or passages of the source. *1 amine or outer side, *2 acyl side, *3 side chain or, on linkers, in order; H or OH if unused. Where a SMILES comes first, the peptide text is derived from it. Bridges are numbered along the chain shown (N, C = ends). [ ]: non-standard residue; d: D form. Trp(6-F) = N[C@@H](Cc1c[nH]c2cc(F)ccc12)C(=O)O; Phe(4-NH2) = Nc1ccc(C[C@H](N)C(=O)O)cc1; 2Nal = N[C@@H](Cc1ccc2ccccc2c1)C(=O)O; AEF = NCCOc1ccc(C[C@H](N)C(=O)O)cc1; X1 = O=C(Cc1ccc(CN[*:1])cc1)[*:2]; 3Pal = N[C@@H](Cc1cccnc1)C(=O)O; αMeL = CC(C)C[C@](C)(N)C(=O)O; CH2COCH2 = O=C(C[*:1])C[*:2]; 3Amb = NCc1cccc(C(=O)O)c1; Dab = NCC[C@H](N)C(=O)O

Key:
[1] = target: T1, human IL-23R (Homo sapiens, UniProt Q5VWK5); assay: Binding assay (NanoBRET displacement of fluorophore-labelled reference compound) for estimating binding affinity to human IL-23R
T1 construct: UniProtKB—Q5VWK5, amino acids 22-629; secretion signal of the plasmid (Promega N1371); expressed in transfected cells
T1 sequence (Q5VWK5 22-629): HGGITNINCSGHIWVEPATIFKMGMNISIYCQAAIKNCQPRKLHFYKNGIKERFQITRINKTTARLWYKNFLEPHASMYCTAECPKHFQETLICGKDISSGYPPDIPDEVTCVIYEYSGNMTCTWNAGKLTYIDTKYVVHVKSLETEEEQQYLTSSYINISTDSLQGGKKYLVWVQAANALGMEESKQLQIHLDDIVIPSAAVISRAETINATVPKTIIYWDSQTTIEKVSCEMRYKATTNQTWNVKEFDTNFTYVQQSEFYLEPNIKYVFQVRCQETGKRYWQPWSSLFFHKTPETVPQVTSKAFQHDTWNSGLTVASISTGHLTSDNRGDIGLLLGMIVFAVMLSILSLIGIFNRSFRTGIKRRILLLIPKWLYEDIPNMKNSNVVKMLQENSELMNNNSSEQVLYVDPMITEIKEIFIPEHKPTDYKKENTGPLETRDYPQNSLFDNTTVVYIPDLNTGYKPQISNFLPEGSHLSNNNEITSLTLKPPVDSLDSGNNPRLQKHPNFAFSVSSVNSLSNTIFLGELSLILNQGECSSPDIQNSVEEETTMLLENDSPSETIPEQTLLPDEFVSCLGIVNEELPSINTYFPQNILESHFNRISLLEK

[2] = Peptide stability in simulated intestinal fluid (SIF); format: in vitro ADME; settings: pig
Outline: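 Peptides incubated at 37°C with gentle shaking in SGF (NaCl, HCl, pH 1.2) or SIF (phosphate pH 6.8 with 10 g/L porcine pancreatin). Samples analysed by LC-HRMS; percent remaining at each timepoint calculated from absolute peak areas relative to time zero.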

[3] = Peptide stability in simulated gastric fluid (SGF); format: in vitro ADME; settings: pig
Protocol: Determination of Peptide Stability in Simulated Gastric Fluid (SGF) and Simulated Intestinal Fluid (SIF)
SGF was prepared by dissolving sodium chloride (0.2 g) in 50 mL of water. A volume of 0.7 mL of 10 M HCl was added to adjust the pH of the solution to 1.2 and the volume made up to 100 mL with water. […] SIF was prepared by dissolving monobasic potassium phosphate (0.68 g) in 50 mL of water and adjusting the pH to 6.8 with 1 M NaOH. The volume was subsequently made up to 100 mL with water. 200 mg porcine pancreatin (P1625, Sigma Aldrich) was gently dissolved into 20 mL preheated (37° C.) solution (10 g/L) immediately prior to the incubation.
The incubation was performed at 37° C. with gentle shaking. […] After the last timepoint, the sampling plate was mixed for 10 min on a shaking table and centrifuged 10 min at 2200 g. 70 μL resulting supernatant was diluted with 150 μL water, mixed and centrifugated before analysis by liquid chromatography high resolution mass spectrometry. […] Percent remaining at each timepoint was calculated relative to timepoint zero based on absolute peak areas.

[4] = Table 3-1, read-out: Ki hIL-23R
[5] = simulated intestinal fluid (SIF) with porcine pancreatin, Table 3-2, porcine pancreatin, pH 6.8, 37° C., 10 μM, 1 h, read-out: SIF (% remaining 1 h)
[6] = simulated intestinal fluid (SIF) with porcine pancreatin, Table 3-2, porcine pancreatin, pH 6.8, 37° C., 10 μM, 4 h, read-out: SIF (% remaining 4 h)
[7] = simulated gastric fluid (SGF) with porcine pepsin, Table 3-3, porcine pepsin, pH 1.2, 37° C., 10 μM, 1 h, read-out: SGF (% remaining 1 h)
[8] = simulated gastric fluid (SGF) with porcine pepsin, Table 3-3, porcine pepsin, pH 1.2, 37° C., 10 μM, 4 h, read-out: SGF (% remaining 4 h)

SMILES	Ki [1, 4] [nM]	remaining at 1 h, 10 μM [2, 5] [%]	remaining at 4 h, 10 μM [2, 6] [%]	remaining at 1 h, 10 μM [3, 7] [%]	remaining at 4 h, 10 μM [3, 8] [%]	other results
CC(C)C[C@H]1NC(=O)[C@H](Cc2ccc3ccccc3c2)NC(=O)[C@H](Cc2ccc(OCCN)cc2)NC(=O)[C@@H]2CSCC(=O)CSC[C@H](NC(=O)[C@H](CO)NC(=O)c3cccc(c3)CNC(=O)CC[C@@H](C(=O)N[C@@H](Cc3ccc(O)cc3)C(N)=O)NC1=O)C(=O)N[C@@H](Cc1c[nH]c3ccccc13)C(=O)N[C@@H](CCC(N)=O)C(=O)N2 [Compound 46, [(3-Aminomethyl)benzoyl](1c)*SC(2a)WQC(2a)[Y(2-aminoethoxy)][2-Nal][{d}L]E(1c)Y-[NH2]] ([3Amb]SCWQC[AEF][2Nal][dL]EY-NH2; linker 3-6 via CH2COCH2; lactam N-10)	48.2	9	0	83	66	–
CC(C)C[C@]1(C)NC(=O)[C@H](Cc2ccc3ccccc3c2)NC(=O)[C@H](Cc2ccc(OCCN)cc2)NC(=O)[C@@H]2CSCC(=O)CSC[C@H](NC(=O)[C@H](CO)NC(=O)c3cccc(c3)CNC(=O)CC[C@@H](C(=O)N[C@@H](CCCNC(=N)N)C(N)=O)NC1=O)C(=O)N[C@@H](Cc1c[nH]c3ccccc13)C(=O)N[C@@H](CCC(N)=O)C(=O)N2 [Compound 38, [(3-Aminomethyl)benzoyl](1c)*SC(2a)WQC(2a)[Y(2-aminoethoxy)][2-Nal][2-Me-Leu]E(1c)R-[NH2]] ([3Amb]SCWQC[AEF][2Nal][αMeL]ER-NH2; linker 3-6 via CH2COCH2; lactam N-10)	2.56	29	5	–	84	–
CC(C)C[C@@H]1NC(=O)[C@H](Cc2c[nH]c3ccccc23)NC(=O)[C@H](Cc2c[nH]c3ccccc23)NC(=O)[C@@H]2CSCC(=O)CSC[C@H](NC(=O)[C@H](CO)NC(=O)[C@@H](NC(=O)[C@@H](N)CC(C)C)CSCC(=O)CSC[C@@H](C(=O)N[C@@H](CCCNC(=N)N)C(N)=O)NC1=O)C(=O)N[C@@H](Cc1c[nH]c3ccccc13)C(=O)N[C@@H](CCC(N)=O)C(=O)N2 [Compound 2, H-LC(1a)SC(2a)WQC(2a)WWLC(1a)R-[NH2]] (HELM PEPTIDE1{L.C.S.C.W.Q.C.W.W.L.C.R.[am]}|CHEM1{[O=C(C[*:1])C[*:2]]}|CHEM2{[O=C(C[*:1])C[*:2]]}$PEPTIDE1,CHEM1,2:R3-1:R1|PEPTIDE1,CHEM1,11:R3-1:R2|PEPTIDE1,CHEM2,4:R3-1:R1|PEPTIDE1,CHEM2,7:R3-1:R2$$$V2.0)	–	–	–	–	–	Ki [1]: 32.3 nM; remaining at 1 h, 10 μM ([2]; Table 3-2, porcine pancreatin, pH 6.8, 37° C., 10 μM, 1 h, read-out: SIF (% remaining 1 h)): 0%; remaining at 4 h, 10 μM ([2]; Table 3-2, porcine pancreatin, pH 6.8, 37° C., 10 μM, 4 h, read-out: SIF (% remaining 4 h)): 0%; remaining at 1 h, 10 μM ([3]; Table 3-3, porcine pepsin, pH 1.2, 37° C., 10 μM, 1 h, read-out: SGF (% remaining 1 h)): 6%; remaining at 4 h, 10 μM ([3]; Table 3-3, porcine pepsin, pH 1.2, 37° C., 10 μM, 4 h, read-out: SGF (% remaining 4 h)): 1%
CC(C)C[C@]1(C)NC(=O)[C@H](Cc2c[nH]c3cc(F)ccc23)NC(=O)[C@H](Cc2ccc(OCCN)cc2)NC(=O)[C@@H]2CSCC(=O)CSC[C@H](NC(=O)[C@H](CO)NC(=O)Cc3ccc(cc3)CNC(=O)CC[C@@H](C(=O)N[C@@H](CCN)C(=O)N[C@@H](Cc3cccnc3)C(N)=O)NC1=O)C(=O)N[C@@H](Cc1c[nH]c3ccccc13)C(=O)N[C@@H](CCC(N)=O)C(=O)N2 [Compound 121, [4-Aminomethyl-phenylacetyl](1c)*SC(2a)WQC(2a)[Y(2-aminoethoxy)][6-F-Trp][2-Me-Leu]E(1c)[Dab][3-(3-Pyridyl)-Ala]-[NH2]] ([X1]SCWQC[AEF][Trp(6-F)][αMeL]E[Dab][3Pal]-NH2; linker 3-6 via CH2COCH2; lactam N-10)	0.00954	–	–	–	–	remaining at 1 h, 10 μM ([2]; pH 6.8): 57%; remaining at 4 h, 10 μM ([2]; pH 6.8): 6%; remaining at 1 h, 10 μM ([3]; pH 1.2): 82%; remaining at 4 h, 10 μM ([3]; pH 1.2): 80%
CC(C)C[C@@H]1NC(=O)[C@H](Cc2ccc3ccccc3c2)NC(=O)[C@H](Cc2ccc(OCCN)cc2)NC(=O)[C@@H]2CSCC(=O)CSC[C@H](NC(=O)[C@H](CO)NC(=O)c3cccc(c3)CNC(=O)CC[C@@H](C(=O)N[C@@H](CCCNC(=N)N)C(N)=O)NC1=O)C(=O)N[C@@H](Cc1c[nH]c3ccccc13)C(=O)N[C@@H](CCC(N)=O)C(=O)N2 [Compound 39, [(3-Aminomethyl)benzoyl](1c)*SC(2a)WQC(2a)[Y(2-aminoethoxy)][2-Nal]LE(1c)R-[NH2]] ([3Amb]SCWQC[AEF][2Nal]LER-NH2; linker 3-6 via CH2COCH2; lactam N-10)	1.4	0	0	90	–	–
CC(C)C[C@]1(C)NC(=O)[C@H](Cc2ccc3ccccc3c2)NC(=O)[C@H](Cc2ccc(OCCN)cc2)NC(=O)[C@@H]2CCCNC(=O)CC[C@H](NC(=O)[C@H](CO)NC(=O)Cc3ccc(cc3)CNC(=O)CC[C@@H](C(=O)N[C@@H](CCN)C(=O)N[C@@H](Cc3cccnc3)C(N)=O)NC1=O)C(=O)N[C@@H](Cc1c[nH]c3ccccc13)C(=O)N[C@@H](CCC(N)=O)C(=O)N2 [Compound 124, [4-Aminomethyl-phenylacetyl](1c)*SE(2c)WQ[Orn](2c)[Y(2-aminoethoxy)][2-Nal][2-Me-Leu]E(1c)[Dab][3-(3-Pyridyl)-Ala]-[NH2]]	0.0107	35	0	–	89	–
CC(C)C[C@]1(C)NC(=O)[C@H](Cc2ccc3ccccc3c2)NC(=O)[C@H](Cc2ccc(OCCN)cc2)NC(=O)[C@@H]2CSCC(=O)CSC[C@H](NC(=O)[C@H](CO)NC(=O)c3cccc(c3)CNC(=O)CC[C@@H](C(=O)N[C@@H](Cc3ccc(N)cc3)C(N)=O)NC1=O)C(=O)N[C@@H](Cc1c[nH]c3ccccc13)C(=O)N[C@@H](CCC(N)=O)C(=O)N2 [Compound 45, [(3-Aminomethyl)benzoyl](1c)*SC(2a)WQC(2a)[Y(2-aminoethoxy)][2-Nal][2-Me-Leu]E(1c)[F(4-NH2)]-[NH2]] ([3Amb]SCWQC[AEF][2Nal][αMeL]E[Phe(4-NH2)]-NH2; linker 3-6 via CH2COCH2; lactam N-10)	12	–	34	76	84	–
CC(C)C[C@]1(C)NC(=O)[C@H](Cc2ccc3ccccc3c2)NC(=O)[C@H](Cc2ccc(OCCN)cc2)NC(=O)[C@@H]2CSCC(=O)CSC[C@H](NC(=O)[C@H](CO)NC(=O)c3cccc(c3)CNC(=O)CC[C@@H](C(=O)N[C@@H](CO)C(N)=O)NC1=O)C(=O)N[C@@H](Cc1c[nH]c3ccccc13)C(=O)N[C@@H](CCC(N)=O)C(=O)N2 [Compound 44, [(3-Aminomethyl)benzoyl](1c)*SC(2a)WQC(2a)[Y(2-aminoethoxy)][2-Nal][2-Me-Leu]E(1c)S-[NH2]]	4.87	79	–	–	73	–
